# Activity calls are given as the source filed them.
# What was measured:
# [1] = biological target: T1, Mannose-6-phosphate isomerase (Homo sapiens, UniProt P34949); assay: PMI enzyme inhibitors, confirmation, biochemical, fluorescence intensity (AID 1535)
# T1 sequence (P34949 whole entry): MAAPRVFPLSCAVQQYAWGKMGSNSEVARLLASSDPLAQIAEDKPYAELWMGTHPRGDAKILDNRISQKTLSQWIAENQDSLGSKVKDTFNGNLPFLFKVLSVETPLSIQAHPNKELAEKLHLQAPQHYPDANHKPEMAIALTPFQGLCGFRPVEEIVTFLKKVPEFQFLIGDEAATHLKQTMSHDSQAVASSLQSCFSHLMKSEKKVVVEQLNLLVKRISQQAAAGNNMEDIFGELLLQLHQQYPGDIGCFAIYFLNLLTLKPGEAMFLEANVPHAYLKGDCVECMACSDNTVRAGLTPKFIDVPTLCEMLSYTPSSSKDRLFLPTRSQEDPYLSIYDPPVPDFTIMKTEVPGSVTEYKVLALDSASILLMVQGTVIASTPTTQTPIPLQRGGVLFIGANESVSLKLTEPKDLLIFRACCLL
# [2] = biological target: DNA dC->dU-editing enzyme APOBEC-3A (Homo sapiens, UniProt P31941); assay: APOBEC3A DNA deaminase inhibitors, dose response, biochemical (AID 504722); type: functional
# Phosphomannomutase 2 = biological target: T2, Phosphomannomutase 2 (Homo sapiens, UniProt O15305); assay: Counter screen SAR assay for PMM2 inhibitors via a fluorescence intensity assay. [Related pubchem assays (depositor defined):AID1545, AID1574]
# T2 sequence (O15305 whole entry): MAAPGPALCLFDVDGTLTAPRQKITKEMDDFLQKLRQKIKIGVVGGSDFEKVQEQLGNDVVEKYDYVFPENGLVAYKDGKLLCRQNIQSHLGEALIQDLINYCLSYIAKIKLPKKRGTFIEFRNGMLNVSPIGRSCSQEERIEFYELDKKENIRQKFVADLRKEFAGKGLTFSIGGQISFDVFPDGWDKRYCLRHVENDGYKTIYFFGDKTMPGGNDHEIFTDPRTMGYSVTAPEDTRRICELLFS
# [3] = biological target: Phosphoethanolamine/phosphocholine phosphatase (Homo sapiens, UniProt Q8TCT1); assay: SAR assay for compounds that inhibit PHOSPHO1. [Related pubchem assays (depositor defined):AID1545, AID1565, AID1574]
# [4] = biological target: DNA dC->dU-editing enzyme APOBEC-3G (Homo sapiens, UniProt Q9HC16); assay: Dose Response confirmation of small molecule APOBEC3G DNA Deaminase Inhibitors via a fluorescence-based single-stranded DNA deaminase assay. [Related pubchem assays (depositor defined):AID493012, AID493028]; type: functional
# [5] = biological target: T3, Alkaline phosphatase, tissue-nonspecific isozyme (Homo sapiens, UniProt P05186); assay: human TNAP enzyme inhibitors, SAR follow-up, biochemical, luminescent, dose response (AID 1056)
# T3 sequence (P05186 whole entry): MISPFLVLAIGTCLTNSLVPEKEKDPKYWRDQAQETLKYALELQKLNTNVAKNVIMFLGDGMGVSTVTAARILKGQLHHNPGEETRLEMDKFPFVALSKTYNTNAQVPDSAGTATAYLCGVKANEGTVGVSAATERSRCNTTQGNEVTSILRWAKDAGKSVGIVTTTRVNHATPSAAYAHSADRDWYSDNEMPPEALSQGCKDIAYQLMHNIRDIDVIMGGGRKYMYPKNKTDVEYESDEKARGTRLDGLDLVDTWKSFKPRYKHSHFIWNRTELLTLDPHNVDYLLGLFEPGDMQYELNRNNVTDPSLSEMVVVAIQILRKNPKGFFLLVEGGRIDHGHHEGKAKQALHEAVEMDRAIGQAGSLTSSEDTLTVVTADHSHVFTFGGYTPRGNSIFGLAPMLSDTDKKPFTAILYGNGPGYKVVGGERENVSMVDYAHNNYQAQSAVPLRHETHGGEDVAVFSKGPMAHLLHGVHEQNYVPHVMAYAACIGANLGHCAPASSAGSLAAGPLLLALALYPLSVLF
# [6] = biological target: T4, Polyadenylate-binding protein 1 (Homo sapiens, UniProt P11940); assay: PABP1 MLLE–PAM2 interaction inhibitors, dose response, miRNA deadenylation inhibitor project, biochemical, fluorescence polarization, Cy5-PAM2 peptide, secondary (AID 602260); type: functional; conditions: read-out: IC50_Mean
# [7] = biological target: Mitochondrial peptide methionine sulfoxide reductase (Bos taurus, UniProt P54149); assay: Absorbance-based biochemical high throughput dose response assay for activators of Methionine sulfoxide reductase A (MsrA).; type: functional
# [8] = biological target: T4, Polyadenylate-binding protein 1; assay: PABP1 MLLE–PAM2 binding inhibitor potency, dose response, biochemical, fluorescence polarization, FITC-PAM2 peptide (AID 602259); type: functional; conditions: read-out: IC50_Mean
# [9] = Fluorescence-based cell-based high throughput dose response assay for inhibitors of the interaction of nucleotide-binding oligomerization domain containing 2 (NOD2) and the receptor-interacting serine-threonine kinase 2 (RIPK2).; type: functional; conditions: Homo sapiens
# Beta Lactamase = Beta Lactamase (Pseudomonas aeruginosa, UniProt Q932Y6); assay: beta-lactamase reporter inhibitor potency, dose response, artefact control for NOD2-RIPK2 interaction inhibitor project, BLA reporter cells, FRET fluorescence (AID 651552); type: functional, cell-based
# [10] = HeLa cell cytotoxicity, dose response, cytotoxicity control for MgcRacGAP inhibitor project (AID 624300); type: functional
# [11] = biological target: T5, Rac GTPase-activating protein 1 (Homo sapiens, UniProt Q9H0H5); assay: MgcRacGAP GTPase-activating activity inhibitors, confirmation, biochemical, ADP Hunter fluorescence, primary and confirmatory (AID 624330); type: functional
# T5 sequence (Q9H0H5 whole entry): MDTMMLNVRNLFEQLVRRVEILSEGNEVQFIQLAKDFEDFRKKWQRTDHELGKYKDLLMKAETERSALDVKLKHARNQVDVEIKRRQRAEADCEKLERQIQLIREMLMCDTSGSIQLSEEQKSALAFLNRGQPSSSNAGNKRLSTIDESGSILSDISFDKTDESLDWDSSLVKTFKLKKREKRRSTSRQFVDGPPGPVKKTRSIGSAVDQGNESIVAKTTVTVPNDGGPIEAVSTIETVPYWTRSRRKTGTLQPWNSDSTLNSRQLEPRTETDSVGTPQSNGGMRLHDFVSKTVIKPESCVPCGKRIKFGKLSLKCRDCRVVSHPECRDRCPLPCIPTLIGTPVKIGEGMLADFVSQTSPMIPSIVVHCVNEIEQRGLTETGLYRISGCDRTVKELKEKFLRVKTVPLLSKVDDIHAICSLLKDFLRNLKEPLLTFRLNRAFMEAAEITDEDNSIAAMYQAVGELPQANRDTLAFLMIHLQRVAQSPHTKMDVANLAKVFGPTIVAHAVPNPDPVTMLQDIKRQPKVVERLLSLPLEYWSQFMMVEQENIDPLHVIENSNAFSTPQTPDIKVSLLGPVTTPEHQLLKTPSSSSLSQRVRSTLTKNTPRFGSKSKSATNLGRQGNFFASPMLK
# [12] = biological target: T6, Short transient receptor potential channel 4 (Mus musculus, UniProt Q9QUQ5); assay: TRPC4 positive allosteric modulators, dose response, cell-based, HEK293 TRPC4/mu-opioid, Fluo-4 calcium, EC20 DAMGO (AID 434941); type: functional
# T6 sequence (Q9QUQ5 whole entry): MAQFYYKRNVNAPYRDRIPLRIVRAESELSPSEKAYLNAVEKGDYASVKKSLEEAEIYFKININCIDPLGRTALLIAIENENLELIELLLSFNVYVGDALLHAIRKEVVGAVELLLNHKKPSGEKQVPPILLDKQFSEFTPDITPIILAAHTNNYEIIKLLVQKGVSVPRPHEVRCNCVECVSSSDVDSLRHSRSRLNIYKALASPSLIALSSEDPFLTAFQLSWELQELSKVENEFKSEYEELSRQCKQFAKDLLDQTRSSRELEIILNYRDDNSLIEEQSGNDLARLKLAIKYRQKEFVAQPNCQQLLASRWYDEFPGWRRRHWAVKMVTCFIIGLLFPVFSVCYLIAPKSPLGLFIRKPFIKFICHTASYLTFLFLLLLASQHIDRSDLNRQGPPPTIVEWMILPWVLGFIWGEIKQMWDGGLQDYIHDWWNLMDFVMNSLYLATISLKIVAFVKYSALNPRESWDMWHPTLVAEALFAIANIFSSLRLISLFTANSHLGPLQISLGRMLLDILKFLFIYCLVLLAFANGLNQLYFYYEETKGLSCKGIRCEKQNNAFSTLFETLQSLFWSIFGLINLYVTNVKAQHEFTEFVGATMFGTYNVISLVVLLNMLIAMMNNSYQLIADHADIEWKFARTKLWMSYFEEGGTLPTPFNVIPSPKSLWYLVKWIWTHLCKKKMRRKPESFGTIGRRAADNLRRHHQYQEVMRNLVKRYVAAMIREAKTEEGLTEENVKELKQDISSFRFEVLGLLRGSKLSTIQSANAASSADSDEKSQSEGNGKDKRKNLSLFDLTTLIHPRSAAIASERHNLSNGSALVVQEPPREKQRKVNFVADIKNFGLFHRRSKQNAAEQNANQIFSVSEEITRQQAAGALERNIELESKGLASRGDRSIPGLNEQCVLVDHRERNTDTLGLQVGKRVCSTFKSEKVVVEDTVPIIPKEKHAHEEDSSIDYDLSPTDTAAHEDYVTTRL
# [13] = biological target: Intestinal-type alkaline phosphatase (Homo sapiens, UniProt P09923); assay: activation of human intestinal alkaline phosphatase – biochemical, dose response (AID 488873); type: functional
# [14] = biological target: Intestinal-type alkaline phosphatase (Mus musculus, UniProt P24822); assay: PubChem AID 488785; type: functional
# [15] = biological target: T3, Alkaline phosphatase, tissue-nonspecific isozyme; assay: TNAP enzyme inhibition by screening hits, dose response, selectivity assay for mouse IAP inhibitor project, biochemical, human TNAP, uHTS hits (AID 488906); type: functional
# [16] = NIH-3T3 fibroblast cytotoxicity, dose response, cytotoxicity control, cell-based, fluorescence, Alamar Blue, secondary assay (AID 2327); type: functional;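 note: NIH-3T3 mouse fibroblasts cultured with fluconazole at 8 µg/mL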
# [17] = inhibitors of firefly luciferase expression or activity, dose response, H4 neuroglioma cells, luminescence (AID 1990); type: functional, cell-based
# BJ [18] = assay: cytotoxicity toward BJ-TERT fibroblasts, dose response, cell-based, RAS-independent, luminescence (AID 1933); type: functional; conditions: Homo sapiens
# [19] = Luminescence Cell-Based Dose Response HTS to Identify Inhibitors of 5'UTR Stem-Loop Driven Prion Protein mRNA Translation in H4 Neuroglioblastoma Cells. [Related pubchem assays: 1827 (Project Summary), 1813 (Primary HTS)]; type: functional
# [20] = inhibitors of SNCA 5'UTR-driven reporter translation, confirmation, H4 neuroglioma cells, luminescence (AID 1988); type: functional, cell-based
# BJ [21] = assay: cells; type: functional, cell-based; conditions: Homo sapiens
# [22] = C. albicans growth with fluconazole, confirmation, fluorescence, retest (AID 2467); type: functional, cell-based
# BJ [23] = assay: cytotoxicity toward BJ-TERT-LT-ST fibroblasts, dose response, cell-based, RAS-independent, luminescence (AID 1935); type: functional; conditions: Homo sapiens;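 note: BJ fibroblasts immortalized with TERT plus LT and ST oncogenes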
# [24] = cytotoxicity toward DRD oncogenic fibroblasts, dose response, cell-based, non-viral oncogenic, luminescence (AID 1934); type: functional; conditions: Homo sapiens
# CAAX prenyl protease 2 = CAAX prenyl protease 2 (Saccharomyces cerevisiae S288c, UniProt Q03530); type: biochemical
# INS1 = assay: beta cell apoptosis inhibitors, cytokine rescue, dose response, luminescence, retest (AID 449756); type: functional, cell-based; conditions: Rattus norvegicus;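 note: cell death triggered by IL-1 beta plus TNF-alpha plus IFN-gamma mixture; protective hits raise ATP signal compared with cytokine alone wells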
# [25] = biological target: Alkaline phosphatase, placental type (Homo sapiens, UniProt P05187); assay: PLAP enzyme inhibitors, confirmation, biochemical, luminescence (AID 1512); type: functional
# [26] = biological target: T7, Tyrosine-protein phosphatase non-receptor type 7 (Homo sapiens, UniProt P35236); assay: SAR analysis of chemical inhibitors of HePTP using a Fluorescent assay - Set 2. [Related pubchem assays (depositor defined):AID1059, AID1077, AID1661, AID2085, AID521]; type: functional
# T7 sequence (P35236 whole entry): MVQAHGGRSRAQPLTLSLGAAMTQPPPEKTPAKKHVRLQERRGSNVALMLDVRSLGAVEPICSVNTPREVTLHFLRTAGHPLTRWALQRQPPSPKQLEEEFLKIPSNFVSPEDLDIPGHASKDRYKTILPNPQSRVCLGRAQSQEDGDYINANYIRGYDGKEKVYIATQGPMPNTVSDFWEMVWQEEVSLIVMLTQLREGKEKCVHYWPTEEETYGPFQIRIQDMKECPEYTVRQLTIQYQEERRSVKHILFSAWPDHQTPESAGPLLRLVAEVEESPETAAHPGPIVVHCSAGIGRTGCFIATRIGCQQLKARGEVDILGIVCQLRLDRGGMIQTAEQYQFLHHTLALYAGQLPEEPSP
# [27] = biological target: Dual specificity protein phosphatase 3 (Homo sapiens, UniProt P51452); assay: SAR VHR1 Fluorescent Assay for In Vitro dose response studies Set 2. [Related pubchem assays (depositor defined):AID1654, AID1661, AID1878]; type: functional
# Sequence of Dual specificity protein phosphatase 3 (P51452 whole entry): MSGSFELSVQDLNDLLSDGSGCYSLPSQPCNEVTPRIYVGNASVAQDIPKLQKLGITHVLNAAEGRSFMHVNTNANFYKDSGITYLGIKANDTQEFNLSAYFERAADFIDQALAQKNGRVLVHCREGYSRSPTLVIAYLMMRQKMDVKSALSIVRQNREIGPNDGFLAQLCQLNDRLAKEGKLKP
# T4 sequence (P11940 whole entry): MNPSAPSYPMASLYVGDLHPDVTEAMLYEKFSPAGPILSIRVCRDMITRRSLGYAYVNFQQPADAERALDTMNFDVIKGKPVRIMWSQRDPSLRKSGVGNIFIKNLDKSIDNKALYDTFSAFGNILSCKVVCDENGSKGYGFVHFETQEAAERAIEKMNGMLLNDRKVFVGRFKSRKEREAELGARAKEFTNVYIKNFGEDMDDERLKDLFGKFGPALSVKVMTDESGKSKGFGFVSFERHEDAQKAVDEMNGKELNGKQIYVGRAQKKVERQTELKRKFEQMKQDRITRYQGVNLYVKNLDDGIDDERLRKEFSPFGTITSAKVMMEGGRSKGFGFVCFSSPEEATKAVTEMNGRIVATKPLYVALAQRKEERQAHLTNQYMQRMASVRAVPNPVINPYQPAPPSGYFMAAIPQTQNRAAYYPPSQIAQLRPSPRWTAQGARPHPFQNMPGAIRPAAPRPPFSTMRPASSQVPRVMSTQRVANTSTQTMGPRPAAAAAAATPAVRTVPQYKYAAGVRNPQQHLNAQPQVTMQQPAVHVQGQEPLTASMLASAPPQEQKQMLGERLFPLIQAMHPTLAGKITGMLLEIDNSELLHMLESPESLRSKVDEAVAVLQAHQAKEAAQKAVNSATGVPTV
# Sequence of CAAX prenyl protease 2 (Q03530 whole entry): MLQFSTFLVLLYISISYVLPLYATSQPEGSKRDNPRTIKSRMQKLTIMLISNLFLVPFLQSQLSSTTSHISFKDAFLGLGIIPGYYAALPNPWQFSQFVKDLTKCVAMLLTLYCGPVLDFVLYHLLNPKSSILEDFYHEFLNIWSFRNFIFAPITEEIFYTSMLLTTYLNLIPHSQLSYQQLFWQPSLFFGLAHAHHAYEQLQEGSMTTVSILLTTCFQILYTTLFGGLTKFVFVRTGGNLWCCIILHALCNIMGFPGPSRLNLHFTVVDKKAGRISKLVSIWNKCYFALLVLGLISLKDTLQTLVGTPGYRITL
# Sequence of DNA dC->dU-editing enzyme APOBEC-3G (Q9HC16 whole entry): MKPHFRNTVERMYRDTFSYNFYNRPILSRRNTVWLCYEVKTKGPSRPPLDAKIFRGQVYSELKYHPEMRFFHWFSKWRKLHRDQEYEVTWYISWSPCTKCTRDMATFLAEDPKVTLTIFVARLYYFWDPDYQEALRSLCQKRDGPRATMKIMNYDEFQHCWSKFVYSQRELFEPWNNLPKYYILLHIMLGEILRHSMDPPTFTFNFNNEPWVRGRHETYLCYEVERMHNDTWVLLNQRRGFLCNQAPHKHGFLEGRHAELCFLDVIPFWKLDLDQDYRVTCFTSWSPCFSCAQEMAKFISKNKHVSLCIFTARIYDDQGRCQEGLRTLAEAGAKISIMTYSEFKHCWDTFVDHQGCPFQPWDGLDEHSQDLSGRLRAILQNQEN
# Sequence of Alkaline phosphatase, placental type (P05187 whole entry): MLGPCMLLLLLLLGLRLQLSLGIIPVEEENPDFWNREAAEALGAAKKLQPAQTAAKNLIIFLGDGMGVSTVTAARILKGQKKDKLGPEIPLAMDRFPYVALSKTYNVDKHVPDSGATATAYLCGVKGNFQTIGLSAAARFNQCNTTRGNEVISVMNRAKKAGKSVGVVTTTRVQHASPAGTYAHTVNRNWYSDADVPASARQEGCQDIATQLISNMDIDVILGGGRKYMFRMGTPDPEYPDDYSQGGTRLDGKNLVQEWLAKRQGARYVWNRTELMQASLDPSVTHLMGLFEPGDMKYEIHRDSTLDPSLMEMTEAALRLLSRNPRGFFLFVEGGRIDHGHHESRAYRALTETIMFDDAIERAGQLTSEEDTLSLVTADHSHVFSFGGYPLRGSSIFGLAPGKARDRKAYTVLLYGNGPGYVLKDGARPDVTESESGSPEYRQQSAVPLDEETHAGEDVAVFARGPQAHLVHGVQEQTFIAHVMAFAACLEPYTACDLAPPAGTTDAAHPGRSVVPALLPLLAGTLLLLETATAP
# Sequence of Mitochondrial peptide methionine sulfoxide reductase (P54149 whole entry): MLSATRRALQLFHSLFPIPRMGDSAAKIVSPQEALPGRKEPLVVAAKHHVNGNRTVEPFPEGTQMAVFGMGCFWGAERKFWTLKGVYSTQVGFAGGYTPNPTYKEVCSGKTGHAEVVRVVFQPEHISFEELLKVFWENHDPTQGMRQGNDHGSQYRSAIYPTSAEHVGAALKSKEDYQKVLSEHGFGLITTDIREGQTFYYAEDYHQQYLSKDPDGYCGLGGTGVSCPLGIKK
# Sequence of Phosphoethanolamine/phosphocholine phosphatase (Q8TCT1 whole entry): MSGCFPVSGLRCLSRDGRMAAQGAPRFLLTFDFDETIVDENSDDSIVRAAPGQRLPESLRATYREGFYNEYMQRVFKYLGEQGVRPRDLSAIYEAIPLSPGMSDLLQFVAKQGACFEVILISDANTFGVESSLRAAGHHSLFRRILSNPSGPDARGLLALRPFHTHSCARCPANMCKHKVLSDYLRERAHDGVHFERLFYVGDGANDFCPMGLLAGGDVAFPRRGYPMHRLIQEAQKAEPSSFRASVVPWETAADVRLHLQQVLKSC
# Sequence of Intestinal-type alkaline phosphatase (Mus musculus, UniProt P24822) (P24822 whole entry): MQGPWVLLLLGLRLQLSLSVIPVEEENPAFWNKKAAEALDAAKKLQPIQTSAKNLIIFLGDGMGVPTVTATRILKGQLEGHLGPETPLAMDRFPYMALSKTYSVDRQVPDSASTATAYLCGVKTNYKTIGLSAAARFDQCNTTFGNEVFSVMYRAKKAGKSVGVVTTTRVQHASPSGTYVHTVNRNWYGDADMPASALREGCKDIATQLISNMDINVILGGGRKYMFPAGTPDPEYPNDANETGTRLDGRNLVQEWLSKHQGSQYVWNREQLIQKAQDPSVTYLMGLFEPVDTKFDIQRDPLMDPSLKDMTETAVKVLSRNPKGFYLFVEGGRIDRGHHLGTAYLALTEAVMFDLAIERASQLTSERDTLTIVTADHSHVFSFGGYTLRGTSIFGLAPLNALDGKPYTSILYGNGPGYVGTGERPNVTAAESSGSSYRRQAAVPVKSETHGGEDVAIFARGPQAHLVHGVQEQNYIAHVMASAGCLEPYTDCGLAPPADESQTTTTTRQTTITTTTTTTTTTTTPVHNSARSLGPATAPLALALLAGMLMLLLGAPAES
# Sequence of Beta Lactamase (Q932Y6 whole entry): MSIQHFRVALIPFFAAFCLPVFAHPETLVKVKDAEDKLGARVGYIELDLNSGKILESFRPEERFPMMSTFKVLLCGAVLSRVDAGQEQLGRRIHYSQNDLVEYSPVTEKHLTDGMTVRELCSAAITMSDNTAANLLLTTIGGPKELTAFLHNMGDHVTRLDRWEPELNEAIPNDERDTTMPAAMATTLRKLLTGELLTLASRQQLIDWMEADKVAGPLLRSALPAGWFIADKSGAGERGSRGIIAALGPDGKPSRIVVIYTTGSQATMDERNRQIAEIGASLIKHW
# Sequence of DNA dC->dU-editing enzyme APOBEC-3A (P31941 whole entry): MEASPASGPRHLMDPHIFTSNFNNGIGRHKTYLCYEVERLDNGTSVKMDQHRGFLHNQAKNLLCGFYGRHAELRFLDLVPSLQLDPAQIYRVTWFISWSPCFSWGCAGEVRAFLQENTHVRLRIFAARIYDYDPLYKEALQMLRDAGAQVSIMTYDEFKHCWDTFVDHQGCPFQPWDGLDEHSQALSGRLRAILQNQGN
# Sequence of Intestinal-type alkaline phosphatase (Homo sapiens, UniProt P09923) (P09923 whole entry): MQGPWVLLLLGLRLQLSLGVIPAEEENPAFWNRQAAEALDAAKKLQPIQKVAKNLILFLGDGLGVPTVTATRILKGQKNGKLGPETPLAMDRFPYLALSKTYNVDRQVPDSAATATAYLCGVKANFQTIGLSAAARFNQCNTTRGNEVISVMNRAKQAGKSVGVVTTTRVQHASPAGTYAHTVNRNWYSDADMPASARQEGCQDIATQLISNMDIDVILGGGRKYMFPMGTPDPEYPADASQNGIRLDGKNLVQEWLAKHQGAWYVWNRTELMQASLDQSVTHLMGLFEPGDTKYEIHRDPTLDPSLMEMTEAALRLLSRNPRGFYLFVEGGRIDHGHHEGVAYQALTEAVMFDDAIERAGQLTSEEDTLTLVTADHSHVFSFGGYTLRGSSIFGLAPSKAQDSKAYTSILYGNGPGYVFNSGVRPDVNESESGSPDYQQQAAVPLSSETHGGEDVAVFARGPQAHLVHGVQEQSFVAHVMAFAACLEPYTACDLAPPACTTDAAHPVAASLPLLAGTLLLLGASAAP
smiles,measurement,setting,value
O=c1c2ccccc2sn1-c1ccc(F)cc1,IC50,[1],1.49 µM (active)
same,IC50,[2],> 100 µM (inactive)
same,IC50,Phosphomannomutase 2,18.1 µM (active)
same,IC50,[3],4.85 µM (inactive)
same,IC50,[4],12.4 µM (active)
same,IC50,[5],> 100 µM (inactive)
same,IC50,[6],> 66 µM (inactive)
same,EC50,[7],98.5 µM (inactive)
same,IC50,[8],> 66 µM (inactive)
same,IC50,[9],5.1 µM (active)
same,IC50,Beta Lactamase,29.5 µM (inactive)
same,CC50,[10],77.3 µM (active)
same,IC50,[11],39.3 µM (active)
CC1=C(C(=O)NCc2ccccc2)C(c2cc(Br)cc(Br)c2OC(C)C)NC(=O)N1 (stereo unspecified),EC50,[12],4.22 µM (active)
CC1(C(=O)NNC(=O)c2ccc(=O)oc2)CC1Br (stereo unspecified),EC50,[13],> 100 µM (inactive)
same,IC50,[14],11 µM (active)
same,IC50,[15],> 100 µM (inactive)
Cc1ccc(-c2cc(-c3ccccc3)cc(-c3ccccc3)[n+]2-c2ccccc2)cc1.[O-][Cl+3]([O-])([O-])[O-],EC50,[16],43.8 µM (active)
same,EC50,[17],> 120 µM (not active)
same,EC50,BJ [18],4.34 µM (active)
same,EC50,[19],> 120 µM (not active)
same,EC50,[20],10.7 µM (active)
same,EC50,BJ [21],7.64 µM (active)
same,EC50,[22],378 nM (active)
same,EC50,BJ [23],4.96 µM (active)
same,EC50,[24],6.7 µM (active)
same,AC50,CAAX prenyl protease 2,29.1 µM (active)
same,AC50,INS1,1.89 µM (active)
Cc1ccc(NC(S)=NNC(=O)c2c(Cl)c(C)nn2C)cc1,IC50,[25],> 100 µM (inactive)
same,IC50,[26],> 100 µM (inactive)
same,IC50,[27],> 100 µM (inactive)

# Reference: ChEMBL document CHEMBL1201862, “PubChem BioAssay data set” (2004)
